From patent EP4786459A1, “BENZENE RING-CONTAINING COMPOUND HAVING ANALGESIC EFFECT, PREPARATION METHOD THEREFOR, AND USE THEREOF” (West China Hospital, Sichuan University, priority 2023, dated 2025)

Key:
[1] = Loss of tail withdrawal reflex (LOTWR) in rats, single intravenous injection, dose escalation: potent analgesic effect and severe adverse reactions; type: in vivo, SD rats; conditions: rat, in vivo, single intravenous injection, minimum dose resulting in serious adverse reactions / minimum effective dose, class symbol, read-out: The safety therapeutic index
Protocol: (§1) Using the loss of tail withdrawal reflex (LOTWR) in rats as an indicator, the potent analgesic effect of the compounds according to the present invention was evaluated.
(§2) 1.1 Experimental animals: Adult male SD rats weighing between 220-300 g were selected for the experiment. The rats were housed in sawdust-bedded cages with a temperature of 25±1°C, humidity ranging from 40% to 60%, and a 12-hour light/12-hour dark cycle. Each cage contained no more than 5 rats, with free access to water and food.
(§3) • (1) The compound of the present invention, along with the positive control drug remifentanil and the negative control (vehicle), were administered in fixed volumes. A dose escalation approach was employed to determine the minimum effective dose at which the compound of the present invention produces potent analgesic effects, as well as the minimum dose at which severe adverse reactions first appear. • (2) LOTWR lasting for 30 seconds was used as the criterion for generating potent analgesic effects. During the experiment, drugs were administered via the tail vein of rats, with a dosage volume of 0.6 mL per rat and a dosage rate of 0.02 mL/s. Subsequently, an alligator clip was applied at a distance of 1 cm from the base of the rat's tail, clamping once longitudinally and once transversely before being left in place. Meanwhile, the distal end of the alligator clip was continuously oscillated (30 times/min) to continuously generate stimulation. […] When all results were "no LOTWR" after 10 minutes of testing (5 trials), the test was stopped and recorded as "ineffective." • (3) All compounds would undergo a dose escalation for efficacy evaluation, starting from 1 mg/kg (due to the high potency of remifentanil, the lowest dose was set at 1 µg/kg), followed by 5 mg/kg, 10 mg/kg, 20 mg/kg, and so on (increasing by 20 mg/kg increments after 20 mg/kg). The dose escalation would be stopped when rats show signs of death, and the lowest effective dose and the lowest dose at which severe adverse reactions occur would be recorded throughout the process. In this study, severe adverse reactions are defined as apnea, generalized tonic rigidity, convulsions, opisthotonus, seizures, etc.
(§4) 1.3 Evaluation indicators: the minimum effective dose; the minimum dose resulting in serious adverse reactions; the safety therapeutic index = "the minimum dose resulting in serious adverse reactions" / "the minimum effective dose".

[2] = tested on: rats; test: as above; type: in vivo, SD rats; conditions: Rattus norvegicus, single intravenous injection (tail vein), LOTWR lasting for 30 seconds as criterion, class symbol, read-out: The minimum effective dose
Protocol: as §1, §2, §3, §4

Row | SMILES | selectivity ratio [1] | minimal effective dose [2]
1 | Cc1ccc(CNC(=O)NCc2ccsc2)c(N(C)C)c1 [Example 1] | 2 to 4 | ≤ 10 mg/kg
2 | Cc1ccc(CNC(=S)NCc2ccsc2)c(N(C)C)c1 [Example 2, 1-(2-(dimethylamino)-4-methylbenzyl)-3-(thiophene-3-ylmethyl)thiourea] | ≤ 2 | ≤ 10 mg/kg
3 | Cc1ccc(CNC(=N)NCc2ccsc2)c(N(C)C)c1 [Example 3, 1-(2-(dimethylamino)-4-methylbenzyl)-3-(thiophen-3-ylmethyl)guanidine] | 2 to 4 | ≤ 10 mg/kg
4 | Cc1ccc(CNC(=NC#N)NCc2ccsc2)c(N(C)C)c1 [Example 4] | ≤ 2 | > 30 mg/kg
5 | Cc1ccc(CNC(=O)OCc2ccsc2)c(N(C)C)c1 [Example 5] | 2 to 4 | ≤ 10 mg/kg
6 | Cc1ccc(COC(=O)NCc2ccsc2)c(N(C)C)c1 [Example 6, 2-(dimethylamino)-4-methylbenzyl(thiophene-3-ylmethyl)carbamate] | 2 to 4 | ≤ 10 mg/kg
7 | Cc1ccc(CNC(=C[N+](=O)[O-])NCc2ccsc2)c(N(C)C)c1 [Example 7] | ≤ 2 | > 30 mg/kg
8 | Cc1ccc(CNc2c(NCc3ccsc3)c(=O)c2=O)c(N(C)C)c1 [Example 8] | ≤ 2 | > 30 mg/kg
9 | Cc1ccc(CNC(=O)NCc2ccoc2)c(N(C)C)c1 [Example 9] | ≤ 2 | 20 to 30 mg/kg
10 | Cc1ccc(CNC(=O)NCc2cccs2)c(N(C)C)c1 [Example 10] | > 4 | ≤ 10 mg/kg
11 | Cc1ccc(CCNC(=O)NCc2ccsc2)c(N(C)C)c1 [Example 11, 1-(2-(dimethylamino)-4-methylphenethyl)-3-(thiophene-3-ylmethyl)urea] | 2 to 4 | ≤ 10 mg/kg
12 | Cc1ccc(CNC(=O)NCCc2ccsc2)c(N(C)C)c1 [Example 12, 1-(2-(dimethylamino)-4-methylbenzyl)-3-(2-(thiophene-3-yl)ethyl)urea] | ≤ 2 | ≤ 10 mg/kg
13 | Cc1ccc(NC(=O)Nc2ccsc2)c(N(C)C)c1 [Example 13] | > 4 | ≤ 10 mg/kg
14 | Cc1ccc(NC(=N)Nc2ccsc2)c(N(C)C)c1 [Example 14] | ≤ 2 | ≤ 10 mg/kg
15 | CN(C)c1cc(O)ccc1CNC(=O)NCc1ccsc1 [Example 15] | > 4 | 10 to 20 mg/kg
16 | [2H]C([2H])([2H])N(c1cc(C)ccc1CNC(=O)NCc1ccsc1)C([2H])([2H])[2H] [Example 17] | 2 to 4 | ≤ 10 mg/kg
17 | Cc1ccc(CNC(=O)NCc2ccsc2)cc1N(C)C [Example 18] | 2 to 4 | ≤ 10 mg/kg
18 | Cc1ccc(CNC(=S)NCc2ccsc2)cc1N(C)C [Example 19, 1-(3-(dimethylamino)-4-methylbenzyl)-3-(thiophene-3-ylmethyl)thiourea] | ≤ 2 | ≤ 10 mg/kg
19 | Cc1ccc(CNC(=N)NCc2ccsc2)cc1N(C)C [Example 20, 1-(3-(dimethylamino)-4-methylbenzyl)-3-(thiophen-3-ylmethyl)guanidine] | ≤ 2 | ≤ 10 mg/kg
20 | Cc1ccc(NC(=N)Nc2ccsc2)cc1N(C)C [Example 21] | > 4 | ≤ 10 mg/kg
21 | COC(=O)C(C#N)=C(NCc1ccsc1)NCc1ccc(C)cc1N(C)C [Example 22] | ≤ 2 | > 30 mg/kg
22 | Cc1ccc(CNC(=O)NCc2ccco2)c(N(C)C)c1 [Example 23] | ≤ 2 | > 30 mg/kg
23 | CN(C)c1ccccc1CNC(=O)NCc1ccsc1 [Example 24] | 2 to 4 | 10 to 20 mg/kg
24 | Cc1ccc(CNC(=N)NCc2cccs2)c(N(C)C)c1 [Example 26] | ≤ 2 | > 30 mg/kg
25 | CN(C)c1ccccc1CNC(=O)NCc1cccs1 [Example 27] | > 4 | ≤ 10 mg/kg

Row | SMILES | selectivity ratio [1] | minimal effective dose [2]
26 | CN(C)c1ccccc1CNC(=S)NCc1cccs1 [Example 28] | ≤ 2 | > 30 mg/kg
27 | CN(C)c1cc(C(F)(F)F)ccc1CNC(=O)NCc1cccs1 [Example 29] | ≤ 2 | ≤ 10 mg/kg
28 | CN(C)c1cccc(CNC(=O)NCc2ccsc2)c1 [Example 30] | ≤ 2 | 20 to 30 mg/kg
29 | Cc1ccc(CNC(=O)NCc2cccs2)cc1N(C)C [Example 31] | > 4 | ≤ 10 mg/kg
30 | Cc1ccc(CNC(=S)NCc2cccs2)cc1N(C)C [Example 32] | > 4 | ≤ 10 mg/kg
31 | Cc1ccc(CNC(=N)NCc2cccs2)cc1N(C)C [Example 33] | ≤ 2 | ≤ 10 mg/kg
32 | CN(C)c1cccc(CNC(=O)NCc2cccs2)c1 [Example 34] | ≤ 2 | 20 to 30 mg/kg
33 | Cc1ccc(CNC(=O)NCc2ccoc2)cc1N(C)C [Example 35] | 2 to 4 | 20 to 30 mg/kg
34 | Cc1ccc(CNC(=O)NCc2ccco2)cc1N(C)C [Example 36] | > 4 | ≤ 10 mg/kg
35 | Cc1ccc(CNC(=O)NCc2ccns2)c(N(C)C)c1 [Example 37] | > 4 | ≤ 10 mg/kg
36 | Cc1ccc(CNC(=O)NCc2cncs2)c(N(C)C)c1 [Example 38] | 2 to 4 | 10 to 20 mg/kg
37 | Cc1ccc(CNC(=O)NCc2nccs2)c(N(C)C)c1 [Example 39] | 2 to 4 | 10 to 20 mg/kg
38 | CN(C)c1ccccc1CNC(=O)NCc1ccns1 [Example 41] | ≤ 2 | > 30 mg/kg
39 | Cc1ccc(CNC(=O)NCc2ccno2)c(N(C)C)c1 [Example 42] | ≤ 2 | > 30 mg/kg
40 | Cc1ccc(CNC(=O)NCc2ncc[nH]2)c(N(C)C)c1 [Example 43] | > 4 | 10 to 20 mg/kg
41 | COC(=O)CCc1ccc(CNC(=O)NCc2ccsc2)c(N(C)C)c1 [Example 44] | ≤ 2 | 10 to 20 mg/kg
42 | CNC(=O)CCc1ccc(CNC(=O)NCc2ccsc2)c(N(C)C)c1 [Example 45] | 2 to 4 | > 30 mg/kg
43 | Cc1ccc(CNC(=O)NCc2nnn[nH]2)c(N(C)C)c1 [Example 46] | ≤ 2 | > 30 mg/kg
44 | COc1c(N(C)C)cc(CNC(=O)NCc2ccsc2)cc1N(C)C [Example 47] | ≤ 2 | ≤ 10 mg/kg
45 | CN(C)c1ccc(Oc2ccccc2)cc1CNC(=O)NCc1ccsc1 [Example 48] | 2 to 4 | ≤ 10 mg/kg
46 | Cc1ccc(N(C)C)c(CNC(=O)NCc2ccns2)c1 [Example 49] | 2 to 4 | > 30 mg/kg
47 | COC(=O)c1ccc(CNC(=O)NCc2ccc(C)cc2N(C)C)s1 [Example 50] | ≤ 2 | 20 to 30 mg/kg
48 | CCCCc1cc(CNC(=O)NCc2ccc(C)cc2N(C)C)cs1 [Example 51] | 2 to 4 | ≤ 10 mg/kg
49 | CCCCc1cscc1CNC(=O)NCc1ccc(C)cc1N(C)C [Example 52] | 2 to 4 | ≤ 10 mg/kg
